From patent US11685744B2, “CDK inhibitors and their use as pharmaceuticals” (Prelude Therapeutics, Incorporated, priority 2020, dated 2023) come the findings set out here.

One series concerns the target CDK6/Cyclin D1 (Homo sapiens (Human), UniProt Q00534). In words: CDK6/CyclinD1 enzymatic activity assay (TR-FRET). Type of series: biochemical. Conditions: ATP 250 μM, read-out: CDK6_D1 IC50. Put shortly: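 Insect-cell-expressed CDK6/Cyclin D1 (1 nM) phosphorylated ULight-4E-BP1 (100 nM) with 250 μM ATP in HEPES pH 7.4 buffer. After 20 min compound preincubation, reactions were started with 10 mM MgCl2 and run 60 min at 37 °C. EDTA-quenched samples were read by TR-FRET with Eu-anti-P-4E-BP1; IC50 from 9-dose 4-parameter fits.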
Background: TR-FRET usually uses a lanthanide donor and a delayed reading to cut background.

The nature of series [1]: Brain-to-plasma ratio (Kp) determination in Sprague-Dawley rats. Conditions: male, rat, po, 10 mg/kg.
Method: The brain-to-plasma ratio (Kp) was determined in male Sprague-Dawley rats (7-9 weeks old) four hours after a single oral dose. Rats were acclimated and given free access to standard rodent chow and water throughout the entire study. Test articles were formulated as a solution at 0.3, 0.4, 0.5, or 1.0 mg/mL in a vehicle comprised of 10:15:75 (v:v:v) dimethylacetamide (DMA):Solutol HS15:water and delivered orally at a rate of 10 mL/kg to three rats to achieve final doses of 3, 4, 5, or 10 mg/kg, respectively. At 4 hours post-dose, blood samples were collected via jugular vein cannula into tubes containing K2EDTA as the anticoagulant and stored on ice. Blood samples were then centrifuged at 4° C. at 6000 rpm for 5 minutes, and the resulting plasma was placed into tubes and stored frozen at −80° C. until analysis. Whole brain samples were also collected at 4 hours post-dose. The weight of each brain was measured and recorded, and samples were immediately stored on dry ice. Brain samples were then transferred to storage at −80° C. until analysis.
Prior to analysis, brain samples were combined with water (4 mL/1 gram of brain) and homogenized. Prior to injection, plasma and brain homogenate samples and standards were prepared for analysis by precipitation with acetonitrile or 1:1 (v:v) methanol:acetonitrile. Samples were then thoroughly mixed, centrifuged at 4000 rpm for 15 minutes, and the resulting supernatant was transferred for analysis. Test article concentrations in plasma and brain homogenate were then determined by LC-MS/MS and quantified against calibration standards prepared to known concentrations in matched blank (analyte-free) biological matrix. The Kp was then determined by dividing the dilution-corrected brain concentration by the plasma concentration from each rat. A brain density of 1 gram/mL was assumed for all calculations.
The target in another series is CDK4/Cyclin D1 (Homo sapiens (Human), UniProt P11802). As to the kind of experiment: CDK4/CyclinD1 enzymatic activity assay (TR-FRET). Conditions: ATP 2 mM, read-out: CDK4_D1 IC50. Type of series: biochemical. Put shortly:
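Insect-cell CDK4/Cyclin D1 (1 nM) with ULight-4E-BP1 (100 nM) and 2 mM ATP in HEPES pH 7.4 buffer, preincubated 20 min with compound (9-dose, 3-fold dilutions); 10 mM MgCl2 started the reaction, run 60 min at 37 °C. EDTA/Eu-anti-phospho-4E-BP1 TR-FRET detection; IC50 from 4-parameter Hill fit.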

The test system of series [2] is MCF7 adenocarcinoma cell line. As to the kind of experiment: Cell proliferation studies in MCF7 cells (ATP-Lite, 10 days). Type of series: cell-based. Conditions: Homo sapiens, 240 h, read-out: PROLIFERATION_CTG_MCF7 IC50. The essentials:
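Cells were seeded at 100 or 200 per well in DMEM with 10% FBS and dosed in quadruplicate over a 9-point 3-fold dilution. Incubation lasted 10 days at 37 °C, with media exchange and re-dosing on day 5. Viability was read by ATP-Lite luminescence and normalised to background and DMSO, giving IC50.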

The mark [3] stands for this setting: brain (homogenate) versus plasma.

CDK6/Cyclin D1, sequence (Q00534 whole entry): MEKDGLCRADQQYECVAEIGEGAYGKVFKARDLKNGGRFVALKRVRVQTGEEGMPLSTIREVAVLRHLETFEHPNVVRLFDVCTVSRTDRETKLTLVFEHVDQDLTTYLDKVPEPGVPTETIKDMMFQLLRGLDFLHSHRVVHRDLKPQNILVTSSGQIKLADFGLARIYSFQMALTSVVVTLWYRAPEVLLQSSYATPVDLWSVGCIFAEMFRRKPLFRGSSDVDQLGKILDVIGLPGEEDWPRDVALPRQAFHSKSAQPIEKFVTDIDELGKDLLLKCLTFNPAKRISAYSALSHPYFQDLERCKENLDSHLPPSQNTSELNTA
CDK6/Cyclin D1, sequence (P24385 whole entry partner): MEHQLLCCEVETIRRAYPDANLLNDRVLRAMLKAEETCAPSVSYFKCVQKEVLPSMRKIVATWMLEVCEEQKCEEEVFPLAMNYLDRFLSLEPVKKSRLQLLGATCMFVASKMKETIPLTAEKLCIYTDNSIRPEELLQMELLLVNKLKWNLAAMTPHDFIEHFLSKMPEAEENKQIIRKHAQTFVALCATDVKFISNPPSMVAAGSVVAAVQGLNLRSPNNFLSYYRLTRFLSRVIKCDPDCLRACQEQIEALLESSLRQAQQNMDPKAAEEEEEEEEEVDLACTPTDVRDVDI
CDK4/Cyclin D1, sequence (P11802 whole entry): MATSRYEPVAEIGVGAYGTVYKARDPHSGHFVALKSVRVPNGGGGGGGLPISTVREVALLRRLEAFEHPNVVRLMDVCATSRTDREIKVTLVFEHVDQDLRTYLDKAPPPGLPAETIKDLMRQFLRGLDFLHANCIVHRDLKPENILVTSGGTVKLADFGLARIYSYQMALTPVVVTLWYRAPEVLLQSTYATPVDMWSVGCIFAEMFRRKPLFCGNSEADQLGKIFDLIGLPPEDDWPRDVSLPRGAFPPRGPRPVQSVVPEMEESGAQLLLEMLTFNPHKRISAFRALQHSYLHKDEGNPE
CDK4/Cyclin D1, sequence (P24385 whole entry partner): as the sequence (P24385 whole entry partner) above

`Cc1c(-c2nc(Nc3ccc(N4CCC5(CC4)CN(C)C5)cn3)ncc2F)sc2c(C(C)C)cn(C)c(=O)c12` [Example 91, 2-(5-Fluoro-2-((5-(2-methyl-2,7-diazaspiro[3.5]nonan-7-yl)pyridin-2-yl)amino)pyrimidin-4-yl)-7-isopropyl-3,5-dimethylthieno[3,2-c]pyridin-4(5H)-one]: the IC50 on CDK6/Cyclin D1 is ≤ 20 nM; on CDK4/Cyclin D1 it was ≤ 20 nM; in series [2] it was 20 to 200 nM. Besides, the Kp at 4 h in series [1] (setting [3]) was < 1.

For the compound `Cc1c(-c2nc(Nc3ccc(C4CCN(C)CC4)nn3)ncc2F)sc2c(C(C)C)cn(C)c(=O)c12` [Example 93, 2-(5-Fluoro-2-((6-(1-methylpiperidin-4-yl)pyridazin-3-yl)amino)pyrimidin-4-yl)-7-isopropyl-3,5-dimethylthieno[3,2-c]pyridin-4(5H)-one], the IC50 on CDK6/Cyclin D1 is 20 to 200 nM; at CDK4/Cyclin D1 it was ≤ 20 nM; in series [2], 20 to 200 nM. The Kp at 4 h in series [1] (setting [3]) was < 1.

With `Cc1c(-c2nc(Nc3ccc(C4CCN(C(C)C)C4)cn3)ncc2F)sc2c(C(C)C)cn(C)c(=O)c12` (centres unmarked) [Example 95, 2-(5-Fluoro-2-((5-(1-isopropylpyrrolidin-3-yl)pyridin-2-yl)amino)pyrimidin-4-yl)-7-isopropyl-3,5-dimethylthieno[3,2-c]pyridin-4(5H)-one], the IC50 was 20 to 200 nM on CDK6/Cyclin D1, ≤ 20 nM at CDK4/Cyclin D1 and 20 to 200 nM in series [2]. Also, the Kp at 4 h in series [1] (setting [3]) lay in the range of 1 to 3.

Turning to `Cc1cnc(Nc2ccc(C3CCN(C)CC3)cn2)nc1-c1cc2c(=O)n(C)cc(C(C)C)c2s1` [Example 97, 7-Isopropyl-5-methyl-2-(5-methyl-2-((5-(1-methylpiperidin-4-yl)pyridin-2-yl)amino)pyrimidin-4-yl)thieno[3,2-c]pyridin-4(5H)-one], the IC50 (at CDK6/Cyclin D1; at CDK4/Cyclin D1; in series [2]) was ≤ 20 nM throughout. Besides, the Kp at 4 h in series [1] (setting [3]) was < 1.

In the case of `CC(C)c1c2sc(-c3nc(Nc4ccc(C5CCN(C)CC5)cn4)ncc3F)cc2nn1C` [Example 99, 5-Fluoro-4-(3-isopropyl-2-methyl-2H-thieno[3,2-c]pyrazol-5-yl)-N-(5-(1-methylpiperidin-4-yl)pyridin-2-yl)pyrimidin-2-amine], the IC50 on CDK6/Cyclin D1 was 20 to 200 nM; on CDK4/Cyclin D1, ≤ 20 nM; in series [2] it was 20 to 200 nM. Also, the Kp at 4 h in series [1] (setting [3]) is > 3.

In the case of `CCN1CCN(c2ccc(Nc3ncc(F)c(-c4sc5c(C(C)(O)C(F)(F)F)n(C)nc5c4C)n3)nc2)CC1` (centres unmarked) [Example 102, 2-(5-(2-((5-(4-Ethylpiperazin-1-yl)pyridin-2-yl)amino)-5-fluoropyrimidin-4-yl)-2,6-dimethyl-2H-thieno[3,2-c]pyrazol-3-yl)-1,1,1-trifluoropropan-2-ol], the results for the IC50 (on CDK6/Cyclin D1; at CDK4/Cyclin D1; in series [2]) were ≤ 20 nM, ≤ 20 nM and 20 to 200 nM, respectively. Further, the Kp at 4 h in series [1] (setting [3]) fell in the range of 1 to 3.

As to `CCN1CC2(CC(c3ccc(Nc4ncc(F)c(-c5cc6nc(C)n(C(C)C)c6s5)n4)nc3)C2)C1` [Example 112, N-(5-(2-Ethyl-2-azaspiro[3.3]heptan-6-yl)pyridin-2-yl)-5-fluoro-4-(3-isopropyl-2-methyl-3H-thieno[2,3-d]imidazol-5-yl)pyrimidin-2-amine], the figures for the IC50 (at CDK6/Cyclin D1; at CDK4/Cyclin D1; in series [2]) were 20 to 200 nM, ≤ 20 nM and 20 to 200 nM, respectively. For the same compound, the Kp at 4 h in series [1] (setting [3]) is < 1.

As to `Cc1nc2cc(-c3nc(Nc4ccc(OC5CCN(C)C5)cn4)ncc3F)sc2n1C(C)C` (centres unmarked) [Example 114, 5-Fluoro-4-(2-methyl-3-propan-2-ylthieno[2,3-d]imidazol-5-yl)-N-[5-(1-methylpyrrolidin-3-yl)oxypyridin-2-yl]pyrimidin-2-amine], the IC50 is 20 to 200 nM at CDK6/Cyclin D1, ≤ 20 nM at CDK4/Cyclin D1 and 20 to 200 nM in series [2]. For the same compound, the Kp at 4 h in series [1] (brain / plasma) was in the range of 1 to 3.

On to `Cc1nc2cc(-c3nc(Nc4ccc(C5CCN(C)CC5)cn4)ncc3C(F)(F)F)sc2n1C(C)C` [Example 120, 4-(3-Isopropyl-2-methyl-3H-thieno[2,3-d]imidazol-5-yl)-N-(5-(1-methylpiperidin-4-yl)pyridin-2-yl)-5-(trifluoromethyl)pyrimidin-2-amine], for which the IC50 at CDK6/Cyclin D1 is ≤ 20 nM; at CDK4/Cyclin D1, ≤ 20 nM; in series [2], 20 to 200 nM. Besides, in series [1] (setting [3]), the Kp at 4 h is 1 to 3.

With `Cc1c(-c2nc(Nc3ccc(C4CCN(C)CC4)cn3)ncc2F)sc2c(C(C)C)cncc12` [Example 123, 5-Fluoro-N-[5-(1-methylpiperidin-4-yl)pyridin-2-yl]-4-(3-methyl-7-propan-2-ylthieno[3,2-c]pyridin-2-yl)pyrimidin-2-amine], the IC50 was 20 to 200 nM on CDK6/Cyclin D1, ≤ 20 nM on CDK4/Cyclin D1 and 20 to 200 nM in series [2]. The Kp at 4 h in series [1] (setting [3]) was > 3.

`CCN1CCN(Cc2ccc(Nc3ncc(F)c(-c4sc5c(ncn5C(C)C)c4C)n3)nc2)CC1` [Example 124, N-[5-[(4-Ethylpiperazin-1-yl)methyl]pyridin-2-yl]-5-fluoro-4-(6-methyl-3-propan-2-ylthieno[2,3-d]imidazol-5-yl)pyrimidin-2-amine]: the IC50 is ≤ 20 nM at CDK6/Cyclin D1, ≤ 20 nM at CDK4/Cyclin D1 and 20 to 200 nM in series [2]. The Kp at 4 h in series [1] (setting [3]) is 1 to 3.

Take `CCN1CCC(c2ccc(Nc3ncc(F)c(-c4sc5c(ncn5C(C)C)c4C)n3)nc2)CC1` [Example 128, N-(5-(1-Ethylpiperidin-4-yl)pyridin-2-yl)-5-fluoro-4-(3-isopropyl-6-methyl-3H-thieno[2,3-d]imidazol-5-yl)pyrimidin-2-amine]: the IC50 (on CDK6/Cyclin D1; at CDK4/Cyclin D1; in series [2]) was ≤ 20 nM in each case. Besides, in series [1] (setting [3]), the Kp at 4 h was 1 to 3.

As for `CCN1CC2(C1)CN(c1ccc(Nc3ncc(F)c(-c4cc5ncn(C(C)C)c5s4)n3)nc1)C2` [Example 129, N-(5-(6-ethyl-2,6-diazaspiro[3.3]heptan-2-yl)pyridin-2-yl)-5-fluoro-4-(3-isopropyl-3H-thieno[2,3-d]imidazol-5-yl)pyrimidin-2-amine], the IC50 (on CDK6/Cyclin D1; on CDK4/Cyclin D1; in series [2]) was ≤ 20 nM each time. In addition, in series [1] (setting [3]), the Kp at 4 h fell in the range of 1 to 3.

As to `Cc1c(-c2nc(Nc3ccc(C4CCCN(C)C4)cn3)ncc2Cl)sc2c1ncn2C(C)C` (centres unmarked) [Example 130, 5-Chloro-4-(3-isopropyl-6-methyl-3H-thieno[2,3-d]imidazol-5-yl)-N-(5-(1-methylpiperidin-3-yl)pyridin-2-yl)pyrimidin-2-amine], the IC50 was 20 to 200 nM at CDK6/Cyclin D1, ≤ 20 nM at CDK4/Cyclin D1 and 20 to 200 nM in series [2]. For the same compound, the Kp at 4 h in series [1] (setting [3]) is 1 to 3.

A word on the Kp: it is tissue or fluid exposure divided by exposure in the circulation.
